Laboratory results reported in patent publication US10851072B2 (THE REGENTS OF THE UNIVERSITY OF MICHIGAN, priority 2018, dated 2020).

How the values were obtained:
[1] = system: serum response element (SRE); assay: SRE.L-Luciferase Reporter Assay; type: cell-based; conditions: Homo sapiens, HEK-293T cells co-transfected with Gα12Q231L, SRE.L and pRL-TK plasmids, 19 hrs treatment
Method: Biological activity of the compounds disclosed herein were assessed in the SRE.L luciferase reporter assay. HEK-293T cells were co-transfected with 2 ng of the Gα12Q231L expression plasmid along with 50 ng of the SRE.L and 7 ng of the pRL-TK luciferase reporter plasmids, as described in the Materials and Methods section. Cells were treated with 0 (vehicle, DMSO alone), 1, 3, 10, 30, and 100 μM of a compound disclosed herein for 19 hrs after transfection before lysis. Luminescence was determined as described in the Materials and Methods section. Just before cell lysis, the viability of the cells was measured using the WST-1 cell proliferation reagent as described in the Materials and Methods section. Data are expressed as percentage of inhibition (DMSO alone=0%). The experiments were performed three separate times to achieve n=3 in triplicate.

[2] = MLM metabolic stability (half-life); type: in vitro ADME, mice; conditions: mouse, mouse liver microsomes (MLM), 1 μM compound, beta-NADPH 1 mM, 60 min, LC-MS, read-out: MLM T1/2
Method: Compounds (1 μM) were incubated with MLM in the presence of beta-NADPH (1 mM) for 60 min. The remaining drug concentration was measured using LC-MS using multiple reaction monitoring (MRM) mode. Both initial and overall disappearance rate and half-lives were calculated. […] Verapamil was run as a positive control in every assay; its half-life could not exceed 4 min or the assay was considered invalid.

[3] = system: C57BL/6J mice; assay: In vivo testing for antifibrotic effects (bleomycin skin injections); conditions: skin of bleomycin-injected mice, A1 3 or 10 mg/kg PO daily, fourteen days
Method: C57BL/6J mice were ordered from Jackson labs for delivery at 15-16 weeks of age. Mice were preconditioned with supplemental chow for two weeks prior to start of experiment. Mice were randomized by weight into four groups (vehicle, A1 (3 mg/kg), A1 (10 mg/kg), PBS). Each group consisted of two cages with four mice per cage. Drug stock solutions were aliquoted and stored at 4° C. for the duration of the study. Aliquots were warmed to 37° C. and briefly vortexed prior to filling the gavage syringes. Vehicle and A1 groups received daily bleomycin injections (0.1 mL, ID) each afternoon in a defined area of shaved dorsal skin. PBS control group received daily injections (0.1 mL, ID) of PBS in the afternoon. Mice were anesthetized with ketamine/xylazine for ID injections. […]
Fixed skin was paraffin embedded and sectioned at the University of Michigan Comprehensive Cancer Center Histology Core. […] Stained sections were analyzed with an Olympus BX51\DP72 microscope. Dermal thickness was determined by measuring the maximal distance between the epidermal-dermal junction and the dermal-subcutaneous fat junction. […]
Skin sections were weighed and hydrolyzed in 6M HCl at 120° C. for three hours. […] Absorbance was measured at 560 nm using a Synergy HT microplate reader (BioTek Instruments). […]

IC50 ([1]; Table C) | IC50 ([1]; Table E) | Compound | also measured
6200 nM | – | O=C(O)CCCSc1nnc(-c2ccccc2C(F)(F)F)o1 [Compound A5, 4-((5-(2-(trifluoromethyl)phenyl)-1,3,4-oxadiazol-2-yl)thio)butanoic acid] | –
– | 140 nM | O=C(O)[C@H]1C[C@H](Sc2nnc(-c3ccc(Cl)cc3Cl)o2)C1 [Compound B1, trans-3-((5-(2,4-dichlorophenyl)-1,3,4-oxadiazol-2-yl)thio)cyclobutanecarboxylic acid] | –
3.6 nM | – | O=C(O)CCCSc1nnc(-c2ccc(OC(F)(F)F)cc2Cl)o1 [Compound A14, 4-((5-(2-chloro-4-(trifluoromethoxy)phenyl)-1,3,4-oxadiazol-2-yl)thio)butanoic acid] | –
– | – | O=C(O)CCCSc1nnc(-c2ccc(OCC3CC3)cc2Cl)o1 [Compound A7, 4-((5-(2-chloro-4-(cyclopropylmethoxy)phenyl)-1,3,4-oxadiazol-2-yl)thio)butanoic acid] | IC50 ([1]; Table D): 0.02 nM
– | > 100000 nM | O=C(O)[C@H]1CC[C@@H](Sc2nnc(-c3ccc(Cl)cc3Cl)o2)CC1 [Compound B9, cis-4-((5-(2,4-dichlorophenyl)-1,3,4-oxadiazol-2-yl)thio)cyclohexanecarboxylic acid] | –
0.02 nM | – | O=C(O)CCCSc1nnc(-c2ccc(Cl)cc2O)o1 [Compound C, 4-((5-(4-chloro-2-hydroxyphenyl)-1,3,4-oxadiazol-2-yl)thio)butanoic acid] | –
– | 2.6 nM | O=C(O)[C@H]1C[C@H](Sc2nnc(-c3ccc(C4CC4)cc3Cl)o2)C1 [Compound B4, trans-3-((5-(2-chloro-4-cyclopropylphenyl)-1,3,4-oxadiazol-2-yl)thio)cyclobutanecarboxylic acid] | –
– | 1000 nM | O=C(O)[C@H]1C[C@H](Sc2nnc(-c3ccc(C(F)(F)F)cc3Cl)o2)C1 [Compound B6, trans-3-((5-(2-chloro-4-(trifluoromethyl)phenyl)-1,3,4-oxadiazol-2-yl)thio)cyclobutanecarboxylic acid] | –
– | 42 nM | O=C(O)[C@H]1C[C@@H](Sc2nnc(-c3ccc(C(F)(F)F)cc3Cl)o2)C1 [Compound B5, cis-3-((5-(2-chloro-4-(trifluoromethyl)phenyl)-1,3,4-oxadiazol-2-yl)thio)cyclobutanecarboxylic acid] | –
211 nM | – | O=C(O)CCCSc1nnc(-c2ccccc2F)o1 [Compound A6, 4-((5-(2-fluorophenyl)-1,3,4-oxadiazol-2-yl)thio)butanoic acid] | –
0.8 nM | – | O=C(O)CCCSc1nnc(-c2ccc(OCC(F)(F)F)cc2Cl)o1 [Compound A12, 4-((5-(2-chloro-4-(2,2,2-trifluoroethoxy)phenyl)-1,3,4-oxadiazol-2-yl)thio)butanoic acid] | half-life at 1 μM [2]: > 1 h
– | > 100000 nM | O=C(O)[C@H]1CC[C@H](Sc2nnc(-c3ccc(Cl)cc3Cl)o2)CC1 [Compound B10, trans-4-((5-(2,4-dichlorophenyl)-1,3,4-oxadiazol-2-yl)thio)cyclohexanecarboxylic acid] | –
– | > 100000 nM | O=C(O)[C@H]1CC[C@H](Sc2nnc(-c3ccc(Cl)cc3Cl)o2)C1 (relative stereo) [Compound B8, trans-3-((5-(2,4-dichlorophenyl)-1,3,4-oxadiazol-2-yl)thio)cyclopentanecarboxylic acid] | –
– | – | COC(=O)CCCSc1nnc(-c2ccc(C3CC3)cc2Cl)o1 [Compound A10, Methyl 4-((5-(2-chloro-4-cyclopropylphenyl)-1,3,4-oxadiazol-2-yl)thio)butanoate] | IC50 ([1]; Table D): 3 nM
– | 15 nM | O=C(O)[C@@H]1CC[C@H](Sc2nnc(-c3ccc(Cl)cc3Cl)o2)C1 (relative stereo) [Compound B7, cis-3-((5-(2,4-dichlorophenyl)-1,3,4-oxadiazol-2-yl)thio)cyclopentanecarboxylic acid] | –
– | – | O=C(O)CCCSc1nnc(-c2cc(C3CC3)ccc2Cl)o1 [Compound A4, 4-((5-(2-chloro-5-cyclopropylphenyl)-1,3,4-oxadiazol-2-yl)thio)butanoic acid] | IC50 ([1]; Table D): 11 nM
– | – | O=C(O)CCCSc1nnc(-c2ccc(OCC3COC3)cc2Cl)o1 [Compound A15, 4-((5-(2-chloro-4-(oxetan-3-ylmethoxy)phenyl)-1,3,4-oxadiazol-2-yl)thio)butanoic acid] | IC50 ([1]; Table D): 35 nM
– | – | O=C(O)CCCSc1nnc(-c2ccc(C(F)(F)F)cc2Cl)o1 [Compound A2] | half-life at 1 μM [2]: > 1 h
330 nM | – | O=C(O)CCCSc1nnc(-c2cccc(C(F)(F)F)c2Cl)o1 [Compound A20, 4-((5-(2-chloro-3-(trifluoromethyl)phenyl)-1,3,4-oxadiazol-2-yl)thio)butanoic acid] | –
– | – | CC1(COc2ccc(-c3nnc(SCCCC(=O)O)o3)c(Cl)c2)COC1 [Compound A16, 4-((5-(2-chloro-4-((3-methyloxetan-3-yl)methoxy)phenyl)-1,3,4-oxadiazol-2-yl)thio)butanoic acid] | IC50 ([1]; Table D): 42 nM
130 nM | – | O=C(O)CCCSc1nnc(-c2ccc(OC(F)F)cc2)o1 [Compound A23, 4-((5-(4-(difluoromethoxy)phenyl)-1,3,4-oxadiazol-2-yl)thio)butanoic acid] | –
160 nM | – | O=C(O)CCCSc1nnc(-c2ccc(C(F)F)cc2)o1 [Compound A18, 4-((5-(4-(difluoromethyl)phenyl)-1,3,4-oxadiazol-2-yl)thio)butanoic acid] | –
1.8 nM | – | O=C(O)CCCSc1nnc(-c2ccc(Cl)cc2Cl)o1 [CCG-232120, reference compound] | –
– | 4.9 nM | O=C(O)[C@H]1C[C@@H](Sc2nnc(-c3ccc(Cl)cc3Cl)o2)C1 [Compound B2, cis-3-((5-(2,4-Dichlorophenyl)-1,3,4-oxadiazol-2-yl)thio)cyclobutanecarboxylic acid] | half-life at 1 μM [2]: > 1 h
– | – | O=C(O)CCCSc1nnc(-c2ccc(C3CC3)cc2Cl)o1 [Compound A1, 4-((5-(2-chloro-4-cyclopropylphenyl)-1,3,4-oxadiazol-2-yl)thio)butanoic acid] | IC50 ([1]; Table D): 0.0012 nM; half-life at 1 μM [2]: 0.783 h; collagen thickness ([3]; Masson's trichrome, dermal thickness, FIG. 2): reduction; hydroxyproline content ([3]; FIG. 1): reduction
240 nM | – | O=C(O)CCCSc1nnc(-c2ccc(OCC(F)(F)F)cc2)o1 [Compound A17, 4-((5-(4-(2,2,2-trifluoroethoxy)phenyl)-1,3,4-oxadiazol-2-yl)thio)butanoic acid] | –
9.5 nM | – | CC(C)(F)c1ccc(-c2nnc(SCCCC(=O)O)o2)cc1 [Compound A22] | –
– | 0.46 nM | O=C(O)[C@H]1C[C@@H](Sc2nnc(-c3ccc(C4CC4)cc3Cl)o2)C1 [Compound B3, cis-3-((5-(2-chloro-4-cyclopropylphenyl)-1,3,4-oxadiazol-2-yl)thio)cyclobutanecarboxylic acid] | –
– | – | O=C(O)CCCSc1nnc(-c2ccc(OC3CC3)cc2Cl)o1 [Compound A8, 4-((5-(2-chloro-4-cyclopropoxyphenyl)-1,3,4-oxadiazol-2-yl)thio)butanoic acid] | half-life at 1 μM [2]: > 1 h
78 nM | – | O=C(O)CCCSc1nnc(-c2ccc(OC(F)(F)F)cc2)o1 [Compound A19, 4-((5-(4-(trifluoromethoxy)phenyl)-1,3,4-oxadiazol-2-yl)thio)butanoic acid] | –
